Patent US20100204203A1, “Chemical Compounds 637: Pyridopyrimidinediones as PDE4 Inhibitors” (priority 2007, published 2010)

biological target: recombinant Human Phosphodiesterase B2 (PDE4B2) (Homo sapiens, UniProt Q07343); experiment: Human Phosphodiesterase B2 Radiometric Assay (yttrium silicate SPA beads, [3H]cyclic AMP); type: biochemical; details: recombinant human PDE4B2, radiometric SPA assay, 8 nM [3H]cyclic AMP; read-out: PDE4B2 pIC50 (converted)
In short: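 Read-out is scintillation proximity: yttrium silicate beads (with 18 mM ZnSO4, added to stop the reaction) bind 5′AMP formed from 8 nM [3H]cAMP over 20 min. Beforehand, compound and 0.1 mg/mL enzyme were preincubated 30 min at 30 °C in pH 7.5 HEPES buffer with MgCl2, EGTA and Brij 35; pIC50 values were curve-fitted.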

Chain of recombinant Human Phosphodiesterase B2 (PDE4B2) (Q07343 1-564 isoform Q07343-2): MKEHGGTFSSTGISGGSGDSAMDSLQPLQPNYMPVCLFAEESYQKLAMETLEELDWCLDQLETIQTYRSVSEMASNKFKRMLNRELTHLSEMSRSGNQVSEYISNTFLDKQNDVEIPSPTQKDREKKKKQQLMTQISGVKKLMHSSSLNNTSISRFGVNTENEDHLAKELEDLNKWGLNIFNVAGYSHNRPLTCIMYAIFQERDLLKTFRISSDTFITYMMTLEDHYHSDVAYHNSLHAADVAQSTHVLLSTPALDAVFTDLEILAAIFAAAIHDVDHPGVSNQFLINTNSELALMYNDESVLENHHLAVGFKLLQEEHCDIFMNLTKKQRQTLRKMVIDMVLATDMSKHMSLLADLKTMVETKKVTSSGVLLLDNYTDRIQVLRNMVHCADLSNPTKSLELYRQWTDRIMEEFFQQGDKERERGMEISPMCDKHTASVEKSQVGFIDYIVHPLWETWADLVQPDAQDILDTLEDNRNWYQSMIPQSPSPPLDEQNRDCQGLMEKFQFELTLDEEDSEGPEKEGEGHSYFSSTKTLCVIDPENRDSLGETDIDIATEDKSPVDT

For `Cc1nc(C(=O)N[C@H]2CC[C@@H](n3c(=O)c4cc(F)cnc4n(-c4cccc(-c5ccc(CN6C[C@@H](C)N[C@@H](C)C6)cc5)c4)c3=O)CC2)cs1` [Example 301, N-{cis-4-[1-(4′-{[(3R,5S)-3,5-dimethylpiperazin-1-yl]methyl}biphenyl-3-yl)-6-fluoro-2,4-dioxo-1,4-dihydropyrido[2,3-d]pyrimidin-3(2H)-yl]cyclohexyl}-2-methyl-1,3-thiazole-4-carboxamide], which IC50 is on record?
Its IC50 is 39.8 pM.

How did the IC50 turn out when `CC(C)N1CCN(Cc2ccc(-c3cccc(-n4c(=O)n([C@H]5CC[C@@H](NC(=O)C6CC6)CC5)c(=O)c5cc(F)cnc54)c3)cc2)CC1` [Example 233, N-{cis-4-[6-fluoro-1-{4′-[(4-isopropylpiperazin-1-yl)methyl]biphenyl-3-yl}-2,4-dioxo-1,4-di-hydropyrido[2,3-d]pyrimidin-3(2H)-yl]cyclohexyl}cyclo-propanecarboxamide] was run?
The IC50 was 50.1 pM.

With `C[C@@H]1CN(Cc2ccc(-c3cccc(-n4c(=O)n([C@H]5CC[C@@H](NC(=O)c6nc7ccccc7[nH]6)CC5)c(=O)c5cc(F)cnc54)c3)cc2)C[C@H](C)N1` [Example 305, N-{cis-4-[1-(4′-{[(3R,5S)-3,5-dimethylpiperazin-1-yl]methyl}biphenyl-3-yl)-6-fluoro-2,4-dioxo-1,4-dihydropyrido[2,3-d]pyrimidin-3(2H)-yl]cyclohexyl}-1H-benzimidazole-2-carboxamide] as the molecule, how does the IC50 read?
The IC50 was 50.1 pM.

`O=C(N[C@H]1CC[C@@H](n2c(=O)c3cc(F)cnc3n(-c3cccc(-c4ccccc4)c3)c2=O)CC1)c1cn2cc(F)ccc2n1` [Example 1, N-[cis-4-(1-biphenyl-3-yl-6-fluoro-2,4-dioxo-1,4-dihydropyrido[2,3-d]pyrimidin-3(2H)-yl)cyclohexyl]-6-fluoroimidazo[1,2-c]pyridine-2-carboxamide] was tested. Which IC50 did it give?
Its IC50 is 25.1 pM.

Which IC50 does the source give for `O=C(N[C@H]1CC[C@@H](n2c(=O)c3cc(F)cnc3n(-c3cccc(-c4ccc(CN5CCCNCC5)cc4)c3)c2=O)CC1)c1nc2ccccc2[nH]1` [Example 354, N-{cis-4-[1-[4′-(1,4-diazepan-1-ylmethyl)biphenyl-3-yl]-6-fluoro-2,4-dioxo-1,4-dihydropyrido[2,3-d]pyrimidin-3(2H)-yl]cyclohexyl}-1H-benzimidazole-2-carboxamide] here?
Its IC50 is 39.8 pM.

For `CN(Cc1cc(O)ccc1-c1cccc(-n2c(=O)n([C@H]3CC[C@@H](NCc4cn5cc(F)ccc5n4)CC3)c(=O)c3cc(F)cnc32)c1)C1(CO)CC1` [Example 321, 6-fluoro-3-(cis-4-{[(6-fluoroimidazo[1,2-a]pyridin-2-yl)methyl]amino}cyclohexyl)-1-(4′-hydroxy-2′-{[[1-(hydroxymethyl)cyclopropyl](methyl)amino]methyl}biphenyl-3-yl)pyrido[2,3-c]pyrimidine-2,4(1H,3H)-dione], which IC50 is on record?
Its IC50 is 100 pM.

With `CN(CCc1ccc(-c2cccc(-n3c(=O)n([C@H]4CC[C@@H](NC(=O)c5cn6cc(F)ccc6n5)CC4)c(=O)c4cc(F)cnc43)c2)cc1)C(C)(C)C` [Example 101, N-{cis-4-[1-(4′-{2-[tert-butyl(methyl)amino]ethyl}biphenyl-3-yl)-6-fluoro-2,4-dioxo-1,4-dihydropyrido[2,3-d]pyrimidin-3(2H)-yl]cyclohexyl}-6-fluoroimidazo[1,2-a]pyridine-2-carboxamide] as the molecule, how does the IC50 read?
Its IC50 is 100 pM.

With `Cc1ccccc1-c1cccc(-n2c(=O)n([C@H]3CC[C@@H](N)CC3)c(=O)c3cc(F)cnc32)c1` [Example 52, 3-(cis-4-aminocyclohexyl)-6-fluoro-1-(2′-methylbiphenyl-3-yl)pyrido[2,3-d]pyrimidine-2,4(1H,3H)-dione] as the molecule, how does the IC50 read?
Its IC50 is 2510 pM.

With `CN1CCCN(Cc2ccc(-c3cccc(-n4c(=O)n([C@H]5CC[C@@H](NC(=O)c6cc7ccccc7cn6)CC5)c(=O)c5cc(F)cnc54)c3)cc2)CC1` [Example 359, N-{cis-4-[6-fluoro-1-{4′-[(4-methyl-1,4-diazepan-1-yl)methyl]biphenyl-3-yl}-2,4-dioxo-1,4-dihydropyrido[2,3-d]pyrimidin-3(2H)-yl]cyclohexyl} isoquinoline-3-carboxamide] as the molecule, how does the IC50 read?
Its IC50 is 25.1 pM.
